Experimental data published in publication PMC3995882, “Antimicrobial and Immunomodulatory Activities of PR-39 Derived Peptides” (PLoS ONE, 2014).
In brackets after ≈: the same amount, converted by molar mass. Where a SMILES comes first, the peptide text is derived from it.

How the values were obtained:
E. coli = test: Colony counting assay (MBC); type: cell-based, Escherichia coli; details: 3 h 37°C, 10 mM phosphate buffer pH 7.0 with 1/1000 TSB, MBC = <100 CFU/ml; for MBC E. coli 0 mM NaCl: 2×10^6 CFU/ml, no NaCl added; for MBC E. coli 100 mM NaCl: 100 mM NaCl added
Method: (§1) Overnight cultures of E. coli and B. globigii were grown in TSB medium at 37°C to mid-logarithmic phase. The antimicrobial activity of the PR-39 derived peptides was tested using colony counting as described before. In short, cells were collected via centrifugation at 900×g for 10 minutes, and resuspended in 10 mM phosphate buffer, pH 7.0, containing 1/1000 TSB medium (Buffer A). Cells were further diluted to 2×10^6 CFU/ml in the same buffer. Next, 25 µl of cell suspension was mixed with an equal volume of different concentrations of peptides ranging from 0–80 µM, and incubated further for 3 hours at 37°C. Ten-fold dilutions were prepared in minimal buffer containing 1/1000 TSB medium in distilled water, and 100 µl from each dilution was spread on TSA plates (Trypton Soy Agar; Oxoid). The plates were incubated at 37°C and the number of colonies was counted 24 h later to determine the number of surviving bacteria. Minimal Bactericidal Concentration (MBC) was defined as <100 CFU/ml corresponding to the detection limit of this assay. To determine the dependence of activity of PR-39 on the energy status of the cell, E. coli was incubated 30 min at 37°C in the presence of the metabolic uncouplers 50 µM carbonyl cyanide m-chlorophenylhydrazone (CCCP), or 5 mM 2,4-dinitrophenol (DNP). Subsequently, an antimicrobial activity assay was performed as described above.

B. globigii = type: cell-based, Bacillus globigii; details: colony counting, 3 h 37°C, 10 mM phosphate buffer pH 7.0 with 1/1000 TSB, MBC = <100 CFU/ml; for MBC B. globigii 0 mM NaCl: 2×10^6 CFU/ml, no NaCl added; for MBC B. globigii +100 mM NaCl: 100 mM NaCl added
Method: as §1

[1] = tested on: Bacillus Subtilis (ATCC6633); test: Broth dilution assay (MIC); type: cell-based; details: 50% MHB, turbidity, range of triplicate experiments
Bacillus Globigii (TNO) = type: cell-based; details: broth dilution, 50% MHB, turbidity; range of triplicate experiments
[2] = tested on: Bacillus Cereus ATCC 9193; test: Broth dilution assay (MIC); type: cell-based; details: 50% MHB, turbidity, range of triplicate experiments
[3] = tested on: Bacillus Lichen ATCC 21424; test: Broth dilution assay (MIC); type: cell-based, Bacillus licheniformis; details: 50% MHB, turbidity, range of triplicate experiments
E.coli ATCC25922 = test: Broth dilution assay (MIC); type: cell-based, Escherichia coli; details: 50% MHB, turbidity, range of triplicate experiments
E.coli K88 403 = details: broth dilution, 50% MHB, turbidity; range of triplicate experiments
Method: Initial screening for antibacterial activity of PR-39 was performed using broth dilution assays. Bacteria were grown to mid-logarithmic phase in MHB medium. The optical density was measured and bacteria were diluted to 2×10^6 CFU/ml. Subsequently 25 µl bacteria were incubated with 25 µl peptide in polypropylene 96 wells plates and incubated at 37°C. After 3 h 200 µl MHD medium was added and samples were further incubated overnight. Minimal inhibitory concentrations (MIC) were determined by turbidity measurement of the wells.

E.coli K12 = test: Broth dilution assay (MIC); type: cell-based, Escherichia coli; details: 50% MHB, turbidity, range of triplicate experiments
E.coli ATCC 4157 = test: Broth dilution assay (MIC); type: cell-based, Escherichia coli; details: 50% MHB, turbidity, range of triplicate experiments
[4] = tested on: Streptococcus Pyogenes (ATCC 19616); test: Broth dilution assay (MIC); type: cell-based; details: 50% MHB, turbidity, range of triplicate experiments
[5] = tested on: Enterococcus Faecalis (ATCC 29213); test: Broth dilution assay (MIC); type: cell-based; details: 50% MHB, turbidity, range of triplicate experiments
[6] = tested on: Enterococcus Faeceum E155; type: cell-based; details: broth dilution, 50% MHB, turbidity; range of triplicate experiments
[7] = tested on: serine proteases, elastase, and aminopeptidases; details: cited from earlier work
Text: Current literature on PR-39 has shifted from an initial focus on antibacterial activity to potential new roles in host defence mechanisms.

SMILES | MBC E. coli 0 mM NaCl (E. coli) [µM] | MBC E. coli 100 mM NaCl (E. coli) [µM] | MBC B. globigii 0 mM NaCl (B. globigii) [µM] | MBC B. globigii +100 mM NaCl (B. globigii) [µM] | MIC [1] [µM] | MIC (Bacillus Globigii (TNO)) [µM] | MIC [2] [µM] | MIC [3] [µM] | MIC (E.coli ATCC25922) [µM] | MIC (E.coli K88 403) [µM] | MIC (E.coli K12) [µM] | MIC (E.coli ATCC 4157) [µM] | MIC [4] [µM] | MIC [5] [µM] | MIC [6] [µM] | resistance to proteases [7]
CC[C@H](C)[C@H](NC(=O)[C@H](CCCNC(=N)N)NC(=O)[C@@H]1CCCN1C(=O)[C@@H]1CCCN1C(=O)[C@H](CC(C)C)NC(=O)[C@H](CCCNC(=N)N)NC(=O)[C@@H]1CCCN1C(=O)[C@@H]1CCCN1C(=O)[C@H](Cc1ccccc1)NC(=O)[C@H](Cc1ccccc1)NC(=O)[C@@H]1CCCN1)C(=O)N1CCC[C@H]1C(=O)N1CCC[C@H]1C(=O)NCC(=O)N[C@@H](Cc1ccccc1)C(=O)N1CCC[C@H]1C(=O)N1CCC[C@H]1C(=O)N[C@@H](CCCNC(=N)N)C(=O)N[C@@H](Cc1ccccc1)C(=O)N1CCC[C@H]1C(=O)N1CCC[C@H]1C(=O)N[C@@H](CCCNC(=N)N)C(=O)N[C@@H](Cc1ccccc1)C(=O)N1CCC[C@H]1C(=O)O [PR-39(16–39)] (H-PFFPPRLPPRIPPGFPPRFPPRFP-OH) | 10 (≈ 28.3 µg/mL) | >40 | 10 (≈ 28.3 µg/mL) | >40 |  |  |  |  |  |  |  |  |  |  |  | 
CC[C@H](C)[C@H](NC(=O)[C@H](CCCNC(=N)N)NC(=O)[C@@H]1CCCN1C(=O)[C@@H]1CCCN1C(=O)[C@H](CC(C)C)NC(=O)[C@H](CCCNC(=N)N)NC(=O)[C@@H]1CCCN1)C(=O)N1CCC[C@H]1C(=O)N1CCC[C@H]1C(=O)NCC(=O)N[C@@H](Cc1ccccc1)C(=O)N1CCC[C@H]1C(=O)N1CCC[C@H]1C(=O)N[C@@H](CCCNC(=N)N)C(=O)N[C@@H](Cc1ccccc1)C(=O)N1CCC[C@H]1C(=O)N1CCC[C@H]1C(=O)N[C@@H](CCCNC(=N)N)C(=O)N[C@@H](Cc1ccccc1)C(=O)N1CCC[C@H]1C(=O)O [PR-39(20–39)] (H-PRLPPRIPPGFPPRFPPRFP-OH) | 5 (≈ 11.7 µg/mL) | >40 | 20 (≈ 46.8 µg/mL) | >40 |  |  |  |  |  |  |  |  |  |  |  | 
CC[C@H](C)[C@H](NC(=O)[C@H](CCCNC(=N)N)NC(=O)[C@@H]1CCCN1)C(=O)N1CCC[C@H]1C(=O)N1CCC[C@H]1C(=O)NCC(=O)N[C@@H](Cc1ccccc1)C(=O)N1CCC[C@H]1C(=O)N1CCC[C@H]1C(=O)N[C@@H](CCCNC(=N)N)C(=O)N[C@@H](Cc1ccccc1)C(=O)N1CCC[C@H]1C(=O)N1CCC[C@H]1C(=O)N[C@@H](CCCNC(=N)N)C(=O)N[C@@H](Cc1ccccc1)C(=O)N1CCC[C@H]1C(=O)O [PR-39(24–39)] (H-PRIPPGFPPRFPPRFP-OH) | 40 (≈ 75 µg/mL) | >40 | 40 (≈ 75 µg/mL) | >40 |  |  |  |  |  |  |  |  |  |  |  | 
CC[C@H](C)[C@H](NC(=O)[C@H](CCCNC(=N)N)NC(=O)[C@@H]1CCCN1C(=O)[C@@H]1CCCN1C(=O)[C@H](CC(C)C)NC(=O)[C@H](CCCNC(=N)N)NC(=O)[C@@H]1CCCN1C(=O)[C@@H]1CCCN1C(=O)[C@H](Cc1ccccc1)NC(=O)[C@H](Cc1ccccc1)NC(=O)[C@@H]1CCCN1C(=O)[C@@H]1CCCN1C(=O)[C@@H]1CCCN1C(=O)[C@H](CCCNC(=N)N)NC(=O)[C@@H]1CCCN1C(=O)[C@H](CCCNC(=N)N)NC(=O)[C@@H]1CCCN1C(=O)[C@H](CC(C)C)NC(=O)[C@H](Cc1ccc(O)cc1)NC(=O)[C@@H]1CCCN1C(=O)[C@@H]1CCCN1C(=O)[C@H](CCCNC(=N)N)NC(=O)[C@@H]1CCCN1C(=O)[C@H](CCCNC(=N)N)NC(=O)[C@H](CCCNC(=N)N)NC(=O)[C@@H](N)CCCNC(=N)N)C(=O)N1CCC[C@H]1C(=O)N1CCC[C@H]1C(=O)NCC(=O)N[C@@H](Cc1ccccc1)C(=O)N1CCC[C@H]1C(=O)N1CCC[C@H]1C(=O)N[C@@H](CCCNC(=N)N)C(=O)N[C@@H](Cc1ccccc1)C(=O)N1CCC[C@H]1C(=O)N1CCC[C@H]1C(=O)N[C@@H](CCCNC(=N)N)C(=O)N[C@@H](Cc1ccccc1)C(=O)N1CCC[C@H]1C(=O)O [PR-39] (H-RRRPRPPYLPRPRPPPFFPPRLPPRIPPGFPPRFPPRFP-OH) | 1.25 (≈ 5.9 µg/mL) | 2.5 (≈ 11.8 µg/mL) | 2.5 (≈ 11.8 µg/mL) | 5 (≈ 23.6 µg/mL) | 2.5 to 5 | 1.25 to 5 | 5 to 20 | 5 (≈ 23.6 µg/mL) | 2.5 to 10 | 1.25 to 2.5 | 1.25 to 2.5 | 1.25 to 2.5 | 2.5 to 5 | 10 (≈ 47.2 µg/mL) | 1.25 to 2.5 | resistant to serine proteases, elastase, and aminopeptidases
